Data as given in US20260034153A1, “Cerebral Blood Flow Augmenter, Brain Activity Promoter, and Vigilance Improver” (Mitsui DM Sugar Co., Ltd., priority 2022, published 2026).

Experiments:
[1] = system: healthy men and women; assay: Digit vigilance task (DVT) response time after intake of test food, crossover test; format: in vivo, human; details: 10.0 g in 100 mL water taken orally before 2nd DVT; 5 DVTs, one per hour; 64 subjects; FIG. 1
Procedure: As the subjects, 64 healthy men and women of 20 to 60 years old were employed. The effects of intake of isomaltulose on cerebral blood flow and brain activity were evaluated based on measurement of the response time to a cognitive task (Digit vigilance task (DVT)) and change of the cerebral blood flow in accordance with the following test. Test methods are more specifically shown below. In the test, each block including the steps shown in Table 1 was performed in one hour, and the 1st block to the 5th block were continuously performed on the same day. […] Before the start of the 2nd DVT, an aqueous solution prepared by dissolving 10.0 g of isomaltulose in 100 mL of water was given as a test food. After the completion of DVT and before the next DVT, the Uchida Kraepelin test was performed. The Uchida Kraepelin test is a test of adjacent single-digit addition. In this Example, the test was performed in order to apply a load such as fatigue to the subject in order to control the break time. DVT is a task mainly used for measuring the vigilance (Non Patent Literature 1 (Joel S. Warm et al., Vigilance requires hard mental work and is stressful, Human Factors, Vol. 50 (3), pp. 433-41, 2008)). […] The time from display of the number or character to the subject's response is measured. […]

[2] = system: healthy men and women; assay: Change in cerebral blood flow in the dorsal lateral prefrontal area during DVT, measured by fNIRS (HOT-2000); format: in vivo, human; details: throughout 5 DVTs, compared to glucose intake group, FIGS. 2 and 3
Procedure: The subjects mentioned above were instructed to take a test diet containing glucose instead of isomaltulose on another day and the same test was performed (crossover test). They constituted a control group.
Using a brain activity measuring apparatus (HOT-2000, manufactured by NeU Corporation) based on fNIRS (near-Infrared spectroscopy), a change in cerebral blood flow in the dorsal lateral prefrontal area was measured during DVT. According to this apparatus, a change in hemoglobin concentration in blood can be detected by irradiation with near-infrared light, with the result that a change in cerebral blood flow in an active area of the brain can be measured.

[3] = system: healthy men and women; assay: Subjective questionnaire survey (VAS method) after the task; format: in vivo, human; details: questionnaire at 3rd to 5th block; compared to glucose control group
Procedure: As the subjects, 64 healthy men and women of 20 to 60 years old were employed. The effects of intake of isomaltulose on cerebral blood flow and brain activity were evaluated based on measurement of the response time to a cognitive task (Digit vigilance task (DVT)) and change of the cerebral blood flow in accordance with the following test. Test methods are more specifically shown below. In the test, each block including the steps shown in Table 1 was performed in one hour, and the 1st block to the 5th block were continuously performed on the same day. […] Before the start of the 2nd DVT, an aqueous solution prepared by dissolving 10.0 g of isomaltulose in 100 mL of water was given as a test food. After the completion of DVT and before the next DVT, the Uchida Kraepelin test was performed. The Uchida Kraepelin test is a test of adjacent single-digit addition. In this Example, the test was performed in order to apply a load such as fatigue to the subject in order to control the break time. First, “Last night, did you sleep better than usual?” was asked. After DVT or Uchida Kraepelin test, the survey for asking subjectivity of the subjects was conducted as to “How are you feeling right now?”, “Are you feeling tired right now?”, “Are you feeling irritated right now?”, “Are you feeling sleepy right now?”, and “Did you work diligently on the task until the end?”. […]

[4] = fraction of the hydrolysis rate of sucrose; cited from earlier work

In the case of O=C(CO)[C@@H](O)[C@H](O)[C@H](O)CO[C@H]1O[C@H](CO)[C@@H](O)[C@H](O)[C@H]1O [isomaltulose, 6-O-α-D-glucopyranosyl-D-fructose], the “response time in DVT (change of average response time relative to 1st DVT)” value [1] was “less likely to increase”, the “change in cerebral blood flow during DVT (average 0 to 120 seconds)” value [2] was “significantly large” and the “answer to question "have you dealt with the task diligently to the end?"” value [3] was “dealt with the task diligently”. For the same compound, the “hydrolysis rate relative to sucrose” value [4] was “⅕”.
